Laboratory results: patent US20160287589A1, “SUBSTITUTED-IMIDAZOPYRIDAZINES” (BAYER PHARMA AKTIENGESELLSCHAFT, priority 2013, published 2016)

These compounds were tested against T1, MKNK1 (Homo sapiens, UniProt Q9BUB5, T385D) (assay: MKNK1 kinase high ATP assay (TR-FRET-based)). Conditions: Table 2a; 2 mM ATP, 15 min preincubation.
T1 construct: GST (N); purchased Carna Biosciences 02-145; host or cells: insect cells (baculovirus expression system)
T1 sequence (Q9BUB5 1-424 isoform Q9BUB5-2 T344D): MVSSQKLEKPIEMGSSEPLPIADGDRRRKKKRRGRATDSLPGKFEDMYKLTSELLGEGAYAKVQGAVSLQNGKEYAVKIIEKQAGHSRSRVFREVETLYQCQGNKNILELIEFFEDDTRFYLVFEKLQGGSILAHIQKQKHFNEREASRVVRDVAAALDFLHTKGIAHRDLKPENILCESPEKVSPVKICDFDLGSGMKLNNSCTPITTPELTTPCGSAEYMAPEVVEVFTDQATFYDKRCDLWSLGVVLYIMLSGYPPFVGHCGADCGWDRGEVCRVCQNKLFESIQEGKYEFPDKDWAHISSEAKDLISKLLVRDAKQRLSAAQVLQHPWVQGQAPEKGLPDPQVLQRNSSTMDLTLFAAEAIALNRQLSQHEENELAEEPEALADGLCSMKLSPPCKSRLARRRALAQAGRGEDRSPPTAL
Type: biochemical
Experimental: MKNK1 Kinase High ATP Assay
MKNK1-inhibitory activity at high ATP of compounds of the present invention after their preincubation with MKNK1 was quantified employing the TR-FRET-based MKNK1 high ATP assay as described in the following paragraphs.
A recombinant fusion protein of Glutathione-S-Transferase (GST, N-terminally) and human full-length MKNK1 (amino acids 1-424 and T344D of accession number BAA 19885.1), expressed in insect cells using baculovirus expression system and purified via glutathione sepharose affinity chromatography, was purchased from Carna Biosciences (product no 02-145) and used as enzyme. As substrate for the kinase reaction the biotinylated peptide biotin-Ahx-IKKRKLTRRKSLKG (C-terminus in amide form) was used, which can be purchased e.g. from the company Biosyntan (Berlin-Buch, Germany).
For the assay 50 nL of a 100 fold concentrated solution of the test compound in DMSO was pipetted into a black low volume 384 well microtiter plate (Greiner Bio-One, Frickenhausen, Germany), 2 μL of a solution of MKNK1 in aqueous assay buffer [50 mM HEPES pH 7.5, 5 mM magnesium chloride, 1.0 mM dithiothreitol, 0.005% (v/v) Nonidet-P40 (Sigma)] was added and the mixture was incubated for 15 min at 22° C. to allow pre-binding of the test compounds to the enzyme before the start of the kinase reaction. Then the kinase reaction was started by the addition of 3 μL of a solution of adenosine-tri-phosphate (ATP, 3.3 mM=>final conc. in the 5 μL assay volume is 2 mM) and substrate (0.1 μM=>final conc. in the 5 μL assay volume is 0.06 μM) in assay buffer and the resulting mixture was incubated for a reaction time of 30 min at 22° C. The concentration of MKNK1 was adjusted depending of the activity of the enzyme lot and was chosen appropriate to have the assay in the linear range, typical concentrations were in the range of 0.003 μg/mL. The reaction was stopped by the addition of 5 μL of a solution of TR-FRET detection reagents (5 nM streptavidine-XL665 [Cisbio Bioassays, Codolet, France] and 1 nM anti-ribosomal protein S6 (pSer236)-antibody from Invitrogen [#44921G] and 1 nM LANCE EU-W1024 labeled ProteinG [Perkin-Elmer, product no. AD0071]) in an aqueous EDTA-solution (100 mM EDTA, 0.1% (w/v) bovine serum albumin in 50 mM HEPES pH 7.5).
The resulting mixture was incubated for 1 h at 22° C. to allow the formation of complex between the phosphorylated biotinylated peptide and the detection reagents. Subsequently the amount of phosphorylated substrate was evaluated by measurement of the resonance energy transfer from the Eu-chelate to the streptavidine-XL. Therefore, the fluorescence emissions at 620 nm and 665 nm after excitation at 350 nm were measured in a TR-FRET reader, e.g. a Rubystar (BMG Labtechnologies, Offenburg, Germany) or a Viewlux (Perkin-Elmer). The ratio of the emissions at 665 nm and at […] was taken as the measure for the amount of phosphorylated substrate. The data were normalised (enzyme reaction without inhibitor=0% inhibition, all other assay components but no enzyme=100% inhibition).
Work on CC(C)(C)C(=O)N1CCC[C@H]1CCOc1ccc2ncc(-c3cc4ccccc4o3)n2n1 [Example I-3, 1-[(2S)-2-(2-{[3-(1-Benzofuran-2-yl)imidazo[1,2-b]pyridazin-6-yl]oxy}ethyl)-pyrrolidin-1-yl]-2,2-dimethylpropan-1-one] yielded an IC50 of 4.8 nM.
In the case of COc1cccc2oc(-c3cnc4ccc(OC[C@H]5CN(C(=O)C6CC6)CCO5)nn34)cc12 [Example I-41, Cyclopropyl[(2R)-2-({[3-(4-methoxy-1-benzofuran-2-yl)imidazo[1,2-b]pyridazin-6-yl]oxy}methyl)morpholin-4-yl]methanone], the IC50 is reported as 7 nM.

Same assay, conditions: Table 2b; 2 mM ATP, 15 min preincubation
For COc1ccc2ncc(-c3cc4c(N5CCN[C@@H](C)C5)cccc4o3)n2n1 [II-40, 6-methoxy-3-{4-[(3S)-3-methylpiperazin-1-yl]-1-benzofuran-2-yl}imidazo[1,2-b]pyridazine], the IC50 was 4.4 nM.
C[C@H]1CN(c2cccc3oc(-c4cnc5ccc(OC[C@@H]6CCC(=O)N6)nn45)cc23)CCN1 [II-42, (5S)-5-{[(3-{4-[(3S)-3-methylpiperazin-1-yl]-1-benzofuran-2-yl}imidazo[1,2-b]pyridazin-6-yl)oxy]methyl}pyrrolidin-2-one] was tested, and the IC50 was 5.8 nM.
COc1ccc2ncc(-c3cc4c(N5CCNC(C)(C)C5)cccc4o3)n2n1 [II-60, 3-[4-(3,3-dimethylpiperazin-1-yl)-1-benzofuran-2-yl]-6-methoxy-imidazo[1,2-b]pyridazine] showed an IC50 of 0.3 nM.
With C[C@H]1CN(c2cccc3oc(-c4cnc5ccc(OCC(F)(F)F)nn45)cc23)CCN1 [II-41, 3-{4-[(3S)-3-methylpiperazin-1-yl]-1-benzofuran-2-yl}-6-(2,2,2-trifluoroethoxy)im-idazo[1,2-b]pyridazine] the IC50 was 5.5 nM.
Compound C[C@H]1CN(c2cccc3oc(-c4cnc5ccc(OCCCS(C)(=O)=O)nn45)cc23)CCN1 [II-52, 3-{4-[(3S)-3-methylpiperazin-1-yl]-1-benzofuran-2-yl}-6-[3-(methylsulfonyl)pro-poxy]imidazo[1,2-b]pyri-dazine] has an IC50 of 7.1 nM.

Same assay, conditions: Table 2c; 2 mM ATP, 15 min preincubation
For C[C@H]1COCCN1c1nccc2oc(-c3cnc4ccc(OC[C@@H]5CCC(=O)N5)nn34)cc12 [III-87, (5S)-5-{[(3-{4-[(3S)-3-Methylmorpholin-4-yl]furo[3,2-c]pyridin-2-yl}imidazo-[1,2-b]pyridazin-6-yl)oxy]methyl}pyrrolidin-2-one], the IC50 was 3.7 nM.
Compound C[C@@H](N)COc1ccc2ncc(-c3cc4c(N5CCOC[C@@H]5C)nccc4o3)n2n1 [III-5, (2R)-1-[(3-{4-[(3S)-3-Methylmorpholin-4-yl]furo[3,2-c]pyridin-2-yl}imidazo-[1,2-b]pyridazin-6-yl)oxy]propan-2-amine] has an IC50 of 10.1 nM.
C[C@H](N)COc1ccc2ncc(-c3cc4c(N5CCOC[C@@H]5C)nccc4o3)n2n1 [III-28, (2S)-1-[(3-{4-[(3S)-3-Methylmorpholin-4-yl]furo[3,2-c]pyridin-2-yl}imidazo-[1,2-b]pyridazin-6-yl)oxy]propan-2-amine] showed an IC50 of 9.4 nM.
For COc1ccc2ncc(-c3cc4c(N5CCO[C@@H](C)C5)nccc4o3)n2n1 [III-94, 6-Methoxy-3-{4-[(2S)-2-methylmorpholin-4-yl]furo[3,2-c]pyridin-2-yl}imidazo[1,2-b]pyridazine], the IC50 was 4 nM.
In the case of C[C@H]1CN(c2nccc3oc(-c4cnc5ccc(OC[C@@H]6CCC(=O)N6)nn45)cc23)CCO1 [III-88, (5S)-5-{[(3-{4-[(2S)-2-Methylmorpholin-4-yl]furo[3,2-c]pyridin-2-yl}imidazo-[1,2-b]pyridazin-6-yl)oxy]methyl}pyrrolidin-2-one], the IC50 is reported as 4.2 nM.
Compound C[C@@H](N)COc1ccc2ncc(-c3cc4c(N5CCO[C@@H](C)C5)nccc4o3)n2n1 [III-6, (2R)-1-[(3-{4-[(2S)-2-Methylmorpholin-4-yl]furo[3,2-c]pyridin-2-yl}imidazo-[1,2-b]pyridazin-6-yl)oxy]propan-2-amine] has an IC50 of 8.8 nM.
For C[C@H](N)COc1ccc2ncc(-c3cc4c(N5CCO[C@@H](C)C5)nccc4o3)n2n1 [III-29, (2S)-1-[(3-{4-[(2S)-2-Methylmorpholin-4-yl]furo[3,2-c]pyridin-2-yl}imidazo-[1,2-b]pyridazin-6-yl)oxy]propan-2-amine], the IC50 was 4.8 nM.
C[C@H]1COCCN1c1nccc2oc(-c3cnc4ccc(O[C@H]5C[C@H](N)C5)nn34)cc12 [III-109, trans-3-[(3-{4-[(3S)-3-Methylmorpholin-4-yl]furo[3,2-c]pyridin-2-yl}imidazo[1,2-b]pyridazin-6-yl)oxy]cyclobutanamine] gave an IC50 of 5.2 nM.
C[C@@H]1COCCN1c1nccc2oc(-c3cnc4ccc(OC[C@H]5CCC(=O)N5)nn34)cc12 [III-79, (5R)-5-{[(3-{4-[(3R)-3-Methylmorpholin-4-yl]furo[3,2-c]pyridin-2-yl}imidazo[1,2-b]pyridazin-6-yl)oxy]methyl}pyrrolidin-2-one] showed an IC50 of 0.7 nM.
For C[C@H]1CN(c2nccc3oc(-c4cnc5ccc(OCCCS(C)(=O)=O)nn45)cc23)CCO1 [III-60, 3-{4-[(2S)-2-Methylmorpholin-4-yl]furo[3,2-c]pyridin-2-yl}-6-[3-(methyl-sulfonyl)propoxy]imidazo[1,2-b]pyridazine], the IC50 was 2.8 nM.
Work on C[C@H]1CN(c2nccc3oc(-c4cnc5ccc(O[C@H]6C[C@H](N)C6)nn45)cc23)CCO1 [III-110, trans-3-[(3-{4-[(2S)-2-Methylmorpholin-4-yl]furo[3,2-c]pyridin-2-yl}imidazo[1,2-b]pyridazin-6-yl)oxy]cyclobutanamine] yielded an IC50 of 10.4 nM.
Compound C[C@H]1COCCN1c1nccc2oc(-c3cnc4ccc(OCCCS(C)(=O)=O)nn34)cc12 [III-59, 3-{4-[(3S)-3-Methylmorpholin-4-yl]furo[3,2-c]pyridin-2-yl}-6-[3-(methyl-sulfonyl)propoxy]imidazo[1,2-b]pyridazine] has an IC50 of 4.9 nM.
In the case of C[C@@H]1CN(c2nccc3oc(-c4cnc5ccc(OCC(F)(F)F)nn45)cc23)CCN1 [III-127, 3-{4-[(3R)-3-methylpiperazin-1-yl]furo[3,2-c]pyridin-2-yl}-6-(2,2,2-trifluoroethoxy)imidazo [1,2-b]pyridazine], the IC50 is reported as 4.2 nM.
COc1ccc2ncc(-c3cc4c(N5CCOC[C@H]5C)nccc4o3)n2n1 [III-92, 6-Methoxy-3-{4-[(3R)-3-methylmorpholin-4-yl]furo[3,2-c]pyridin-2-yl}imidazo[1,2-b]pyridazine] was tested, and the IC50 was 3.2 nM.
C[C@H]1COCCN1c1nccc2oc(-c3cnc4ccc(OC[C@H]5CCC(=O)N5)nn34)cc12 [III-84, (5R)-5-{[(3-{4-[(3S)-3-Methylmorpholin-4-yl]furo[3,2-c]pyridin-2-yl}imidazo[1,2-b]pyridazin-6-yl)oxy]methyl}pyrrolidin-2-one] gave an IC50 of 0.5 nM.
In the case of COc1ccc2ncc(-c3cc4c(N5CCOC[C@@H]5C)nccc4o3)n2n1 [III-93, 6-Methoxy-3-{4-[(3S)-3-methylmorpholin-4-yl]furo[3,2-c]pyridin-2-yl}imidazo[1,2-b]pyridazine], the IC50 is reported as 5.6 nM.

Same assay, conditions: Table 2d; 2 mM ATP, 15 min preincubation
In the case of O=C1CC[C@H](COc2ccc3ncc(-c4cc5c(OCC6CC6)nccc5o4)n3n2)N1 [IV-12, (5R)-5-[({3-[4-(Cyclopropylmethoxy)furo[3,2-c]pyridin-2-yl]imidazo[1,2-b]-pyridazin-6-yl}oxy)methyl]pyrrolidin-2-one], the IC50 is reported as 7 nM.
